Experiments:
pentosidine formation = experiment: AGEs (pentosidine) formation inhibiting effect in plasma from dialysis patients; assay type: biochemical, human; details: for Pentosidine formation: 5 mM; for pentosidine formation suppression: plasma from the patients with dialysis
Method: Before dialysis, blood samples were obtained from non-diabetic volunteer dialysis patients with renal failure, and fresh heparinized plasma samples were prepared therefrom Pooled plasma obtained from several patients (n=3˜5) was served to the test. 4-(5-phenyltetrazol-1-ylmethyl)-morpholine (Compound 1), 5-methyl-1-(5-phenyltetrazol-1-ylmethyl)-3a,6a-dihydro-1H-pyrrolo[3,4-d][1,2,3]triazole-4,6-dione (Compound 2) or (5-phenyltetrazol-1-yl)methanol (Compound 3) adjusted to a designed concentration ([…]), in DMSO solution (100 μl), was added to the pooled plasma (900 μl) and incubated at 37° C. for 7 days in the presence of air. Then, the amount of pentosidine was measured to estimate the suppressive effect on the glycation of protein.
Measurement of the amount of pentosidine was made as follows: to each incubated sample (50 μL) was added an equal volume of 10% trichloroacetic acid, followed by centrifugation at 5000 g for 5 minutes; after removal of the supernatant, the pellet was washed by 5% trichloroacetic acid (300 μL); the pellet was dried under reduced pressure and then subjected to hydrolysis in 6N HCI solution (100 μL) at 110° C. under nitrogen atmosphere for 16 hours; to the hydrolysate, 5N NaOH (100 μL) and 0.5 M phosphate buffer (pH 7.4) (200 μL) were added, followed by filtration through a porefilter with a pore size of 0.5 μm and dilution with PBS. The concentration of free pentosidine was determined by reversed-phase HPLC using a fluorescence detector (RF-10A, Shimazu Seisakusho) (Miyata, T. et al.: Proc. Natl. Acad. Sci. USA, 93, 2353-2358, 1996). The effluent was monitored at 335/385 nm of excitation/emission wavelength. Synthetic pentosidine was used as the standard. The detection limit of pentosidine was 0.1 pmol/mg protein.
The inhibiting effect was estimated by comparing with positive control (aminoguanidine and pyridoxamine (Sigma)) reacted in the same manner as 4-(5-phenyltetrazol-1-yl-methyl)-morpholine (Compound 1), 5-methyl-1-(5-phenyltetrazol-1-ylmethyl)-3a,6a-dihydro-1H-pyrrolo[3,4-d][1,2,3]triazole-4,6-dione (Compound 2) and (5-phenyltetrazol-1-yl)methanol (Compound 3).

[1] = Suppressive effect on the hydroxylation of phenylalanine with hydroxy radical; assay type: biochemical; details: in comparison with pyridoxamine as positive control; 0.1, 0.5, 2.5 mM
Method: Phenylalanine (final concentration: 1 mM), test compound (final concentration: 0.1, 0.5, 2.5 mM), hydrogen peroxide (final concentration: 5 mM) and cupric sulfate (final concentration: 0.1 mM) were dissolved in 200 mM of phosphate buffer (pH7.4) (total volume 500 μL), followed by incubation at 37° C. for 4 hours. Then, DTPA (final concent-ration: 1 mM) and 260 unit of catalase were added thereto to interrupt the reaction. The amounts of o-tyrosine and m-tyrosine formed were determined by HPLC in the following manner: after a designed period of time, the reaction mixture was diluted to 100 folds; 20 μL of the dilution was injected onto HPLC, separation was made with C18 column (4.6×250 mm, 5 μm; Nomura Kagaku) and detection was effected using a fluorescence detector (RF-10A: Shimazu Seisakusho) under the condition of an excitation wavelength of 275 nm and a fluorescence wavelength of 305 nm. In the mobile phase, the flow rate was 0.6mL/min and the concentration of buffer B was varied from 6.5% to 10% in 25 minutes (buffer A: 0.10% trifluoroacetic acid; buffer B: 80% acetonitrile containing 0.08% trifluoroacetic acid).

[2] = Suppressing effect on the nitration of tyrosine with peroxynitrite; assay type: biochemical; details: in comparison with pyridoxamine as positive control; 0.1, 0.5, 2.5 and 5 mM
Method: According to the method of Pannala, A.S. et al. (Free Radic. Biol. Med., 24:594-606, 1998), the examination was carried out. Namely, tyrosine (final concentration: 100 μM), the test compound (final concentration: 0.1, 0.5, 2.5 and 5 mM) and peroxynitrite (Dojin Kagaku) (final concentration: 500 μM) were dissolved in 200 mM of phosphate buffer (pH7.4) (liquid volume 500 μL) and incubated at 37° C. for 15 minutes. After incubation, the nitrotyrosine formation was determined with HPLC in the following manner: after a predifined time, the reaction mixture (20 μL) was injected onto HPLC, separation was made with C18 column (4.6×250 mm, 5 μm: Waters) and the detection was effected using a ultraviolet detector (RF-10A: Shimazu Seisakusho) at a wavelength of 280 nm. In the mobile phase, the flow rate was 0.6 mL/min and the concentration of buffer B was varied from 5.0% to 30% in 30 minutes (buffer A: 0.10% trifluoroacetic acid; buffer B: 80% acetonitrile containing 0.08% trifluoroacetic acid). 4-Hydroxy-3-nitrobenzoic acid (100 μM) was used as the internal standard.

[3] = Vitamin B6 (PLP; pyridoxal phosphate) trapping; assay type: biochemical; details: 500 μM compound, 50 μM PLP, PBS
Method: To a solution of vitamin B6, the compound of this invention is added, and after a certain period of time, an amount of vitamin B6 remained is determined.
4-(5-phenyltetrazol-1-ylmethyl)-morpholine (Compound 1), 5-methyl-1-(5-phenyltetrazol-1-ylmethyl)-3a,6a-dihydro-1H-pyrrolo[3,4-d][1,2,3]triazol-4,6-dione (Compound 2) and (5-phenyltetrazol-1-yl)methanol (Compound 3) as well as aminoguanidine as the positive control were each dissolved in DMSO in a designed concentration to make a sample solution. DMSO itself was used as the negative control. In addition, pyridoxal phosphate (PLP) was dissolved in purified-water to make a designed concentration. PBS was added to each of the test compound, the positive control and the negative control, to make a final concentration of 500 μM. The PLP solution as above prepared was added to each of the resultant solution to make a final concentration of 50 μM for preparation of the PLP reaction solution. Using HPLC, the amount of PLP in the PLP reaction solution was determined after 0.1 and 10 hours, from which the PLP trapping amount of each test compound was ascertained.
The analysis of PLP using HPLC was carried out by separation with reverse-phase C18 column (4.6×250 mm, 5 μm; Waters) and by using a fluorescence detector (RF-10A; Shimazu Seisakusho; excitation wavelength, 300 nm and fluorescence wavelength, 400 nm). In the mobile phase, the flow rate was 0.6 mL/min and the concentration of buffer B was varied from 0% to 3% in 25 minutes (buffer A: 0.10% trifluoroacetic acid; buffer B: 80% acetonitrile containing 0.08% trifluoroacetic acid).

[4] = Absorbability examination, oral administration to rat; assay type: in vivo; details: 50 mg/kg oral
Method: For 4-(5-phenyltetrazol-1-yl methyl)-morpholine (compound 1) and (5-phenyltetrazol-1-yl)methanol (compound 3), their sorbability were examined. Each compounds are suspended in carboxymethyl cellulose in given concentration to prepare sample for oral administration. Then each samples were administered in the ratio of 50 mg/kg to rat using sonde. Five Wister rats (male, 8 weeks aged, closed colony) were used every one group. At one hour, 2 hours, 6 hours and 24 hours after the administration of compound, blood was obtained. The obtained blood samples were immediately cetrifuged at 3000 rpm for 15 minutes to obtain the blood plasma and the concentration of the compound in the specimen was quantitated by HPLC. Briefly, to 100 μL of obtained blood plasma was added to 200 μL of acetonitrile, centrifuged at 12000 rpm for 10 minutes to obtain supernatant, deproteinized and served to HPLC. The measuring condition of HPLC was selected from suitable condition for each compounds to separate and quantify. For example, in case of 4-(5-phenyltetrazol-1-yl methyl)-morpholine (compound 1), separated with reverse-phase C18 column (4.6×250 mm, 5 μm: Waters), and then detected using ultraviolet detector (RF-10A: Shimazu Seisakusho) at 240 nm of wavelength to quantify. In mobile phase, the flow rate is 0.8 mL/min and solvent is water: acetonitrile.

[5] = Acute toxicity examination, single oral administration to mouse; details: male, in vivo, ICR mice, single oral administration
Method: (§1) For 4-(5-phenyltetrazol-1-ylmethyl)-morpholine (compound 1) and (5-phenyltetrazol-1-yl) methanol (compound 3), acute toxicity test was carried out using mice. Each compounds were suspended in carboxymethyl cellulose in given concentration to prepare sample for oral administration. Then single oral administration was done to mouse. The dose is 100, 250, 500, 1000 and 2000 mg/kg. Five ICR mice (male , 8 weeks aged, closed colony) were used in each group. The test material was administrated to determine LD50 value.

ICR mice = experiment: as above; details: in vivo, po
Method: as §1

[6] = plasma from dialysis patients, 37° C., 7 days, DMSO negative control 2.960

Structure (SMILES)	Pentosidine formation (pentosidine formation; [6])	pentosidine formation suppression (pentosidine formation)	PLP trapping [3]	Pentosidine formation (pentosidine formation; same manner as Table 2)	further results
CN1C(=O)C2N=NN(Cn3nnnc3-c3ccccc3)C2C1=O (stereo not drawn) [Compound 2, 5-methyl-1-(5-phenyltetrazol-1-ylmethyl)-3a,6a-dihydro-1H-pyrrolo[3,4-d][1,2,3]triazole-4,6-dione]	0.320 nmol/mL	suppressed remarkably	none		hydroxylation of phenylalanine with hydroxy radical, suppression [1]: suppressed remarkably; nitrotyrosine formation, suppression [2]: suppressed remarkably
c1ccc(-c2nnnn2CN2CCSCC2)cc1 [Compound 6, 4-(5-phenyltetrazol-1-ylmethyl)-thiomorpholine]		suppressed remarkably		0.149 nmol/mL	
Cc1ncc(CO)c(CN)c1O [Pyridoxamine, pyridoxamine, reference compound]	2.280 nmol/mL				
c1ccc(-c2nnnn2CN2CCN(Cn3nnnc3-c3ccccc3)CC2)cc1 [Compound 7, 1,4-bis-(5-phenyltetrazol-1-ylmethyl)-piperazine]		suppressed remarkably		0.103 nmol/mL	
N=C(N)NN [Aminoguanidine, aminoguanidine, reference compound]	2.604 nmol/mL		remarkable PLP trapping		
CN1CCN(Cn2nnnc2-c2ccccc2)CC1 [Compound 5, 1-methyl-4-(5-phenyltetrazol-1-ylmethyl)-piperazine]		suppressed remarkably		0.201 nmol/mL	
OCn1nnnc1-c1ccccc1 [Compound 3, (5-phenyltetrazol-1-yl)-methanol]	0.026 nmol/mL	suppressed remarkably	none		hydroxylation of phenylalanine with hydroxy radical, suppression [1]: suppressed remarkably; nitrotyrosine formation, suppression [2]: suppressed remarkably; sorbability (plasma concentration after oral administration) [4]: good sorbability; LD50 [5]: > 2000 mg/kg; toxicity (ICR mice): lower toxicity
c1ccc(-c2nnnn2CN2CCNCC2)cc1 [Compound 4, 1-(5-phenyltetrazol-1-ylmethyl)-piperazine]		suppressed remarkably		0.234 nmol/mL	

Reference: patent US20070161691A1, “Modified-protein formation inhibitor” (TOKAI UNIVERSITY, priority 2003, published 2007)
